# Calls of active or inactive are those of the source. The rule behind the calls is not given here.
# Key:
# [1] = molecular target: Endothelial PAS domain-containing protein 1 (Homo sapiens) (UniProt Q99814); experiment: potency against HIF reporters across cell lines – luminescence, panel, selectivity assay for HIF-2a inhibitor project, dose response (AID 651581); details: human cell HIF reporter
# [2] = molecular target: Hypoxia-inducible factor 1-alpha (Homo sapiens) (UniProt Q16665); experiment: as above; details: human cell HIF reporter, HIF-1a
# Hypoxia-inducible factor 1-alpha (Homo sapiens), sequence (Q16665 whole entry, looked up): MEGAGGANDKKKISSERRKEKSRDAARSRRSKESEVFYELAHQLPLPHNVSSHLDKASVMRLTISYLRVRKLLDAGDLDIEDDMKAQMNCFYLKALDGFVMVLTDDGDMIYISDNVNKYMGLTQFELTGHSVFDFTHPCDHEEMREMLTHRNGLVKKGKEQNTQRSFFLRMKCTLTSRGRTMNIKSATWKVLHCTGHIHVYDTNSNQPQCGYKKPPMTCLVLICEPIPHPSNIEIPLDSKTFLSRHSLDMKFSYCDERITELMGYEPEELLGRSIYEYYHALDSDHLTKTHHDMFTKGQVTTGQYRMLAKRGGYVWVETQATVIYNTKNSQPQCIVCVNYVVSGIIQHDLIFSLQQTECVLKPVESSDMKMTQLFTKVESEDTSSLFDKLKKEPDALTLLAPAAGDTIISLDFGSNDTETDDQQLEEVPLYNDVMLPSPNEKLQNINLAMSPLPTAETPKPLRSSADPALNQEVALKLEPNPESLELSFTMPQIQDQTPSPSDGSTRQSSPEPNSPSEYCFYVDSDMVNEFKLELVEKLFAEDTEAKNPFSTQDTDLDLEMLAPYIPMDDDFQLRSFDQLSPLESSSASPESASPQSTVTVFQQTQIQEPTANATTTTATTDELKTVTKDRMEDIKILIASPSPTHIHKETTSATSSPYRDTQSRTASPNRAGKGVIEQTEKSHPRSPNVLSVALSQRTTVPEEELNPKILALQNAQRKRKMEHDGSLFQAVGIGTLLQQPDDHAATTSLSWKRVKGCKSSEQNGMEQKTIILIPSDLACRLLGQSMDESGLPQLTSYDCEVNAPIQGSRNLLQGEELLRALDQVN
Structure (SMILES),"IC50 ([1]; HIF-2a PANC, run 1)","IC50 ([1]; HIF-2a PANC, run 2)","IC50 ([1]; HIF-2a, mean of runs)","IC50 ([1]; HIF-2a, run 1)","IC50 ([1]; HIF-2a, run 2)",IC50 ([2]; mean of runs),IC50 ([2]; run 1),IC50 ([2]; run 2),"IC50 ([1]; HIF-2a PANC, mean of runs)"
NC(=O)COC(=O)CCCSc1nc2ccccc2s1,> 99 µM,81.1 µM,8.53 µM,8.5 µM,8.56 µM,inactive,5.5 µM,12.1 µM,–
CCOC(=O)NC(=O)COC(=O)CCCSc1nc2ccccc2s1,12 µM,10.7 µM,9.56 µM,8.83 µM,10.3 µM,inactive,24.2 µM,13.4 µM,11.3 µM
O=C(O)c1cccc(-c2nc3ccccc3[nH]2)c1,> 99 µM,> 99 µM,inactive,14.5 µM,15.5 µM,–,> 99 µM,> 99 µM,> 99 µM (inactive)
COc1ccc(OC)c(S(=O)(=O)ON2C(=O)c3ccccc3C2=O)c1,> 99 µM,> 99 µM,8.27 µM,9.25 µM,7.3 µM,–,> 99 µM,> 99 µM,> 99 µM (inactive)
CC(C)C[C@@H](N)c1nnc(SCC(=O)c2ccc(Cl)cc2)o1,4.22 µM,3.6 µM,4.02 µM,4.09 µM,3.94 µM,–,> 99 µM,> 99 µM,3.91 µM
CCOC(=O)Cc1csc(NC(=S)NC(=O)c2ccc(F)cc2)n1,> 99 µM,13.5 µM,1.96 µM,1.92 µM,2.01 µM,12.9 µM,13.5 µM,12.4 µM,–
CCOC(=O)c1cc(-c2csc(-c3ccc(C(C)(C)C)cc3)n2)on1,> 99 µM,> 99 µM,4.82 µM,4.83 µM,4.81 µM,55.7 µM,68.5 µM,42.9 µM,> 99 µM (inactive)
NNC(=O)c1cccc(COc2ccc3c(c2)CCC3)c1,> 99 µM,> 99 µM,< 30 µM (inactive),< 30 µM,< 30 µM,–,> 99 µM,> 99 µM,> 99 µM (inactive)
CCNC(=O)NC(=O)COC(=O)CCCSc1nc2ccccc2s1,10.8 µM,13.4 µM,5.05 µM,5.08 µM,5.02 µM,17.9 µM,28.3 µM,7.51 µM,12.1 µM
CC(C)(C)c1ccc(-c2noc(CCC(=O)NCc3ccco3)n2)cc1,< 3 µM,< 3 µM,< 1 µM,< 1 µM,< 1 µM,–,< 0.19 µM,41.9 µM,< 3 µM
Cc1nnnn1/C(=C\c1ccccc1)C(=O)OCC(=O)Nc1ccc(Cl)cc1F,19.3 µM,20.6 µM,8.16 µM,8.44 µM,7.88 µM,inactive,16 µM,21.2 µM,19.9 µM
C/C(=N\OCc1cccc(C(=O)O)c1)c1ccc(Cl)cc1,> 99 µM,> 99 µM,–,< 10 µM,5.87 µM,–,> 99 µM,> 99 µM,> 99 µM (inactive)
Cc1ccc(-n2nc3ccc(N)cc3n2)c(C)c1,1.69 µM,3.51 µM,0.452 µM,0.456 µM,0.448 µM,–,> 99 µM,> 99 µM,inactive
CCOC(=O)Cn1cc(/C=C/[N+](=O)[O-])c2ccccc21,> 99 µM,> 99 µM,inactive,13.5 µM,13.2 µM,inactive,17.7 µM,25 µM,> 99 µM (inactive)
CCOc1cc(/C=N/Nc2cccc(C(=O)O)c2)ccc1OC(=O)c1ccccc1,> 99 µM,30.1 µM,4.22 µM,4.44 µM,4 µM,–,> 99 µM,> 99 µM,–
Cc1cc(SC#N)cc(C)c1NC(=O)CCl,> 99 µM,93.4 µM,inactive,12.6 µM,7.78 µM,inactive,20.2 µM,28.5 µM,–
CCOC(=O)C1CCCN(C(=O)COc2ccc(C(C)(C)C)cc2)CC1 (stereo unspecified),16.5 µM,10.4 µM,8.24 µM,8.72 µM,7.77 µM,–,> 99 µM,> 99 µM,13.5 µM
O=C1C=C(c2ccc(Cl)cc2)C(=O)N1Nc1ccccc1,29.9 µM,75.9 µM,5.66 µM,5.69 µM,5.63 µM,25.8 µM,22.8 µM,28.9 µM,inactive

Structure (SMILES),"IC50 ([1]; HIF-2a PANC, run 1)","IC50 ([1]; HIF-2a PANC, run 2)","IC50 ([1]; HIF-2a, mean of runs)","IC50 ([1]; HIF-2a, run 1)","IC50 ([1]; HIF-2a, run 2)",IC50 ([2]; mean of runs),IC50 ([2]; run 1),IC50 ([2]; run 2),"IC50 ([1]; HIF-2a PANC, mean of runs)"
COc1ccccc1N1C(=O)C=C(Sc2nc(C)cc(C)n2)C1=O,> 99 µM,> 99 µM,inactive,10.2 µM,11.8 µM,–,68.3 µM,> 99 µM,> 99 µM (inactive)
CCOC(=O)c1cccc(COC(=O)c2cccc(-c3nnc(-c4ccccc4)o3)c2)c1,> 99 µM,> 99 µM,inactive,13.2 µM,16.5 µM,–,> 99 µM,> 99 µM,> 99 µM (inactive)
COC(=O)CCCNC(=O)CCc1nnc(-c2ccc(-c3ccccc3)cc2)o1,> 99 µM,21.3 µM,2.82 µM,3.04 µM,2.6 µM,–,> 99 µM,> 99 µM,–
O=Cc1ccc(-c2cccs2)s1,> 99 µM,> 99 µM,5.55 µM,5.49 µM,5.62 µM,–,> 99 µM,> 99 µM,> 99 µM (inactive)
CCOc1ccc(OCc2cccc(C(=O)N/N=C/c3cccnc3)c2)cc1,16.7 µM,12 µM,2.03 µM,2.13 µM,1.94 µM,–,> 99 µM,> 99 µM,inactive
Cn1c(/C=C/c2ccc(Cl)cc2)c([N+](=O)[O-])c(=O)n(C)c1=O,29.4 µM,39.1 µM,inactive,12.5 µM,11.9 µM,inactive,26 µM,24.3 µM,34.3 µM
Cc1nc(SCCC(=O)O)c2cc(-c3ccccc3)sc2n1,1.02 µM,1.53 µM,0.212 µM,0.196 µM,0.228 µM,–,> 99 µM,1.56 µM,inactive
COc1ccc(-c2cnc3c(NC=O)cc(-c4cccc(NS(C)(=O)=O)c4)cn23)cc1OC,3.94 µM,5.05 µM,inactive,13 µM,10.8 µM,inactive,30.3 µM,24.8 µM,4.5 µM
Cc1ccc(S(=O)(=O)c2ncccc2[N+](=O)[O-])cc1,20.6 µM,16.9 µM,9.71 µM,10 µM,9.38 µM,inactive,21.3 µM,23 µM,18.7 µM
CC(=O)Nc1ccc(OS(=O)(=O)c2ccc(C)cc2C)cc1,5.49 µM,9.84 µM,3.79 µM,3.7 µM,3.87 µM,24.9 µM,28.2 µM,21.6 µM,7.66 µM
Nc1nc2ccc(S(=O)(=O)c3ccc4nc(N)sc4c3)cc2s1,> 99 µM,> 99 µM,inactive,14.7 µM,14.7 µM,–,71.7 µM,> 99 µM,> 99 µM (inactive)
Cc1nnnn1/C(=C\c1ccccc1)C(=O)OCC(=O)Nc1cccc(S(=O)(=O)N(C)C)c1,> 99 µM,24.2 µM,8.61 µM,8.32 µM,8.9 µM,inactive,13.5 µM,18.5 µM,–
Cc1nc2cc(-c3ccccc3)nn2c(C)c1CCC(=O)N1CCC2(CC1)OCCO2,2.63 µM,2.35 µM,0.832 µM,0.742 µM,0.921 µM,53 µM,53.9 µM,52 µM,2.49 µM
O=c1[nH]c2ccc(Br)cc2c(=O)o1,36.4 µM,58.6 µM,inactive,19.3 µM,20 µM,–,> 99 µM,20 µM,47.5 µM
Cc1nc(SCc2cccc(C(=O)O)c2)nc2c1CCCC2,7.09 µM,65.6 µM,1.05 µM,1.28 µM,0.826 µM,10.5 µM,3.9 µM,17 µM,inactive
Cc1ccc(/C=N/Nc2cccc(C(=O)O)c2)s1,> 99 µM,> 99 µM,–,< 30 µM,> 99 µM,> 99 µM (inactive),> 99 µM,> 99 µM,–
O=Cc1cn(Cc2cccc([N+](=O)[O-])c2)c2ccccc12,> 99 µM,> 99 µM,0.978 µM,0.982 µM,0.975 µM,–,> 99 µM,> 99 µM,> 99 µM (inactive)
O=C(c1ccccc1)c1cc(Cl)ccc1N1C(=O)C=CC1=O,25.3 µM,> 99 µM,6.91 µM,7.05 µM,6.78 µM,58.4 µM,55 µM,61.7 µM,–

# Reference: PubChem BioAssay AID651581 (Sanford-Burnham Center for Chemical Genomics, 2012)
